{
  "source": "PubChem BioAssay AID651890",
  "about": "(Broad Institute, 2012)",
  "test_system": "T. cruzi Tulahuen amastigotes in L-6 cells, CPRG absorbance",
  "experiment": "T. cruzi amastigote growth inhibition, dose response, Tulahuen strain, L-6 host cells, dry powder (AID 651890)",
  "data": [
    {"compound": "C[C@@H]1CN([C@@H](C)CO)C(=O)c2cccc(NC(=O)c3ccncc3)c2O[C@H]1CN(C)Cc1ccc(Oc2ccccc2)cc1", "values": [
      {"measurement": "IC50", "value": 39, "unit": "nM"}
    ]}
  ]
}
